Reference: the NIST ThermoML archive (doi:10.1021/acs.jced.8b01202)
“And” between values parts separate entries of the source, which are not always exact repeats. Equal entries are not always repeated. ± gives the expanded uncertainty stated by the source.

Legend:
[1] = 298.2 K; 101.33 kPa; Liquid; Vibrating tube method
[2] = refractive index (Na D-line) (dimensionless); details: 298.2 K; 101.33 kPa; Liquid; Standard Abbe refractometry
[3] = refractive index (Na D-line) (dimensionless); wn = mass fraction of the nth substance listed; details: 298.2 K, 81.5 kPa, Liquid, Standard Abbe refractometry

`CC(C)c1ccccc1` [isopropylbenzene] showed a mass density [1] of 857.54 ± 1.7 kg/m3 and a refractive index [2] of 1.49005 ± 0.0014.
With `CC(C)c1ccccc1` [isopropylbenzene] + O the refractive index ([3]; w2 = 0.0006) was 1.48845 ± 0.0014, the refractive index ([3]; w2 = 0.0008) was 1.48875 ± 0.0014 and 1.48855 ± 0.0014 and the refractive index ([3]; w2 = 0.0009) was 1.49001 ± 0.0014. For the same compound, the refractive index ([3]; w2 = 0.001) was 1.4885 ± 0.0014, the refractive index ([3]; w2 = 0.0016) was 1.48855 ± 0.0014 and the refractive index ([3]; w2 = 0.9996) was 1.333 ± 0.0014.
Work on `O` [water] yielded a refractive index [2] of 1.3325 ± 0.0014.
